Results reported in patent US20020086027A1, “Composition and method for enhancing immunological memory response” (priority 1998, published 2002).
“Also recorded” adds a separate entry of the source.

Columns and labels:
T cell lines = assay: Intracellular cAMP levels in T cell lines; type: cell-based; conditions: preliminary experiments
Description: Several effects of POX on T cell signaling pathways have been reported. […] A major consequence of inhibition of phosphodiesterase is an increase in the levels of intracellular cAMP. […] This raises the possibility that although dbcAMP mimics POX in its effects on T cell priming, the precise molecular pathways involved may differ.

human T cells [1] = assay: Secondary (recall) alloproliferative response of T cells primed in vitro; type: cell-based; conditions: for memory/recall proliferative response: primed with allo-PBMCs in presence of 100 ug/ml drug, restimulated without drug
Method: In this system, we have used responses to first exposure as an indication of primary responses. When cells stimulated in this fashion are rested in culture and then restimulated with the same stimulator PBMCs, the 'recall' response measured are taken as an indication of immune memory. Proliferation is measured by the incorporation of radioactive tritiated thymidine in dividing cells. For priming, responder and stimulator cells mixed in 2-5 ml cultures in a ratio of 1:1-3:1. After five days of incubation, the cells were harvested, counted and viable cells used as primed responders with g-irradiated allostimulators in secondary alloproliferation assays, which were pulsed with (H^3)-thymidine after four days for estimating cell proliferation. For flow cytometric analysis, cells were separated from debris by Ficoll-Paque gradient centrifugation before staining. […] Sigma Chemical Co.) at room temperature for 20 minutes, washed extensively and used. For priming in vitro, responder PBMCs were incubated for 72 or 144 h at a ratio of either 1:1 or 2:1 respectively, with stimulator PBMCs. Where appropriate, CsA. Aph. and/or […] were added at the concentrations indicated, of PFA-fixed PBMCs were used instead.

human T cells [2] = assay: Response of primed cells to IL-2 or PHA; type: cell-based; conditions: for response of primed cells to PHA: primed in presence vs absence of 100 ug/ml drug
Method: For priming in vitro, responder PBMCs were incubated for 72 or 144 h at a ratio of either 1:1 or 2:1 respectively, with stimulator PBMCs. Where appropriate, CsA. Aph. and/or Trental were added at the concentrations indicated, of PFA-fixed PBMCs were used instead.

[3] = tested on: allo-specific precursor T cells; assay: Limiting dilution analysis of clonal responder frequency and burst size; type: cell-based, human
Description: Limiting dilution analyses were used to calculate the number of transplantation antigen-specific memory T cells in cultures primed in the presence or absence of POX. Multiple replicate wells of titrated numbers of primed responders were restimulated. the numbers of wells showing proliferative responses at each responder dose were used to calculate the frequency of responding memory t cells in the primed populations. estimates of the extent of proliferation in wells effectively containing single responder cells served as a measure of clonal burst size. […] To determine the frequence of all-specific precursor cells in the various responder populations, titrating numbers (from 10,000 to 200 per well) of variously primed cells were added to a constant number (1×10^5 per well) of g-irradiated stimulator PBMCs. Of the 48 wells plated per responder dose, those wells showing a response at least twice that of the background value were scored positive. The responder frequency was calculated by taking the number of negative wells into account. The response was considered clonal at the responder cell number where the proportion of positively responding wells was less than 37%. At responder cell concentrations showing clonal frequencies, the average cpm values of responding (versus non-responding) wells were used as an estimate of the average clonal burst size of single responding T cells.

human T cells [4] = assay: Cytokines in culture (IL-2 in supernatants, IFN-γ during recall); type: cell-based
Description: Such possibilities make it plausible that signal-transduction pathways can be identified that differentially affect the commitment of responding T cells to the effector vs the memory pathways. […] It was of interest to look at the role of IL-2 in these events. […] Yet, the recall responses of cells primed under cover of […] are far higher than those of cells primed without […]). In fact, if […] is used in a situation in which T cell proliferation is abrogated by Aph it still enhances the response capability of primed T cells (FIG. 9). […] The enhancement in the magnitude of the secondary response caused by the presence of […] during priming is not simply the result of altered kinetics or response either (FIG. 11), but an actual increase. Clearly […] affects T cell priming such that commitment to memory is enhanced at the cost of effector responses, independent of its on T cell proliferation. […] (data not shown).

CC(=O)CCCCn1c(=O)c2c(ncn2C)n(C)c1=O [POX, pentoxifylline]
intracellular cAMP levels (T cell lines): does not increase | subsequent alloproliferative response of unprimed cells incubated with drug alone (human T cells [1]; 100 μg/ml, no stimulators during incubation): does not enhance | enhancing effect on the recall response (human T cells [1]; lower doses of Trental during priming): decreases | secondary response to unfixed PBMCs (human T cells [1]; primed with PF-fixed PBMCs in presence of POX 100 ug/ml): enhanced | recall response (human T cells [1]; primed with Trental plus Aph vs Aph alone): still higher | memory/recall proliferative response (human T cells [1]): much improved | memory/recall proliferative response (human T cells [1]; listed as Trental): enhanced | response of primed cells to IL-2 (human T cells [2]; primed in presence vs absence of 100 μg/ml Trental): to the same extent | response of primed cells to PHA (human T cells [2]): does not bring about any enhancement | response of primed cells to PHA (human T cells [2]; listed as Trental): comparable | frequency of alloreactive responder (memory) T cells ([3]; drug present during priming (POX 100 ug/ml)): enhanced; also recorded: significantly enhances | clonal burst size (average clonal proliferative response) ([3]; drug-treated vs untreated during priming): without altering; also recorded: not significantly different | IL-2 in culture supernatants (human T cells [4]; Trental 100 μg/ml treated cultures): do not find detectable levels | levels of IFN-γ produced during recall (human T cells [4]; primed in presence vs absence of Trental): not different
